# In paper PMC9238271, “The quorum sensing peptide EntF* promotes colorectal cancer metastasis in mice: a new factor in the host-microbiome interaction” (BMC Biology, 2022):
# Columns and labels:
# [1] = EntF production in germ-free mice: EntF* in colon content and serum; type: in vivo, germ-free female C57BL6 mice
# Description: Fifty microliters of serum were mixed with 150 μL 0.5% formic acid in acetonitrile. After sonication for 5 min, samples were vortexed for 5 s, then heated for 30 s at 100 °C. The solution was vortexed and centrifuged for 20 min at 20,000g at 4 °C. The supernatant was purified using solid phase extraction (SPE) on HyperSep C18 plates (Thermo Fisher Scientific, Belgium), previously conditioned with acetonitrile and equilibrated with 75% acetonitrile in water, containing 0.375% formic acid. After loading 150 μL of each sample, 120 μL eluent were collected and organic solvents evaporated using nitrogen (1 L/min) for 5 min. The resulting samples were further diluted with 30 μL of BSA-based anti-adsorption solution, and analyzed by LC-MS.
# For EntF and EntF* colon content analysis, 50 mg of colon content were suspended in 100 μL of a 2% hydrochloric acid solution, vortexed and sonicated for 30 s. The suspension was centrifuged for 1 min at 3000g, and 50 μL of the supernatant was heated at 100 °C for 1 min and cooled on ice for 1 min. Samples were centrifuged again for 1 min at 10,000g, and 30 μL of supernatant was added to a 900 μL of a 3% DMSO solution in acetonitrile acidified with 0.1% formic acid (equilibration solution). Nine hundred microliters of the diluted samples was loaded on a HILIC amide SPE MonoSpin column previously conditioned with acetonitrile and equilibrated with the equilibration solution. Samples were eluted using a mixture of 75/20/5 (V/V/V) H2O/acetonitrile/DMSO acidified with 0.1% formic acid.
# EntF* was detected and quantified on a Waters Acquity® UPLC H-class system, connected to a Waters Xevo™ TQ-S triple quadrupole mass spectrometer with electrospray ionization (operated in positive ionization mode). Autosampler tray and column oven were kept at 10 ± 5 °C and 60 ± 5 °C, respectively. Chromatographic separation was achieved on a Waters Acquity® UPLC BEH Peptide C18 column (300 Å, 1.7 μm, 2.1 mm × 100 mm). The mobile phases consisted of 93/2/5 water/acetonitrile/DMSO (V/V/V) containing 0.1% formic acid (mobile phase A) and 2/93/5 water/acetonitrile/DMSO (V/V/V) containing 0.1% formic acid (mobile phase B), and the flow rate was set to 0.5 mL/min. A 10-μL aliquot from each sample was injected. The gradient program started with 80% of mobile phase A for 1 min, followed by a linear gradient to 40% of mobile phase A for 3.5 min. Gradient was then changed to 14.2% mobile phase A at 5 min, followed by a 1 min equilibration, before starting conditions were applied. EntF* retention time was between 4.25 and 4.45 min.
# Mice were obtained from the Ghent Germfree and Gnotobiotic mouse facility (LA1400637), maintained in a sterile environment under controlled conditions (light–dark cycle with light from 7:00 h to 17:00 h, temperature 21–25 °C, and humidity 45–65%). Twelve germ-free female C57BL6 mice were divided into 3 groups and each group (n = 4) was kept in a separate cage. At day 0, the placebo group was treated with the cell medium (BHI), the control group received a mixture of 3 EntF-negative E. faecium strains (NCIMB 10415; W54 and LMG S-28935 each 10^8 CFU per strain) suspended in 300 μL of BHI, while the test group received a mixture of 3 EntF-producing E. faecium strains (LMG 23236; T-110 and ATCC 8459 each 10^8 CFU/strain) suspended in 300 μL of BHI. […] Serum samples were stored at − 80 °C and subsequently analyzed for the presence of EntF* using LC1-MS1. […] Samples were further analyzed for the presence of EntF* using LC1-MS1.
# [2] = Formation of EntF* from EntF in HBSS (buffer); type: in vitro ADME; conditions: for Formation rate, HBSS: EntF in HBSS; for EntF* Conc formed from EntF / EntF* without metabolisation, Conc / EntF*/EntF: single run
# [3] = HBSS, initial concentration EntF 31.82 µM, time 0
# [4] = HBSS, initial concentration EntF 31.82 µM, time 1
# [5] = HBSS, initial concentration EntF 31.82 µM, time 5
# [6] = HBSS, initial concentration EntF 31.82 µM, time 10
# [7] = HBSS, initial concentration EntF 31.82 µM, time 30
# [8] = HBSS, initial concentration EntF 31.82 µM, time 60
# [9] = HBSS, initial concentration EntF 31.82 µM, time 120
# [10] = HBSS, initial concentration EntF 31.82 µM, time 180
compound,measurement,setting,value
"CC(C)C[C@@H]1NC(=O)[C@H](CO)NC(=O)[C@H](Cc2ccccc2)NC(=O)[C@H](C(C)C)NC(=O)[C@@H](NC(=O)[C@H](CCC(=O)O)NC(=O)[C@@H](NC(=O)[C@H](CC(C)C)NC(=O)[C@H](CC(N)=O)NC(=O)[C@@H](N)CO)C(C)C)CSSC[C@@H](C(=O)N[C@@H](CC(N)=O)C(=O)O)NC(=O)[C@H](CCCCN)NC(=O)[C@H](CCCCN)NC(=O)[C@H](Cc2ccccc2)NC1=O (single isomer, unassigned) [EntF*]",tissue level at time molar at 96 h,"[1]; female, C57BL6, mouse, colon content, germ-free mice four days after oral gavage of 3 EntF-producing E. faecium strains (10^8 CFU/strain), LoD 1.9 pmol/g, LC1-MS1, mean ± SEM, n = 4, read-out: EntF* concentration in colon content",0.01 ± 0.0032 nmol/g
same,EntF* in serum of the test group,"[1]; germ-free mice four days after oral gavage of EntF-producing E. faecium strains, LC1-MS1",detected
same,"EntF* in feces, Tot. Av.","[1]; gnotobiotic mice, feces, mean of 4 test mice",9.726 pmol/g
same,"EntF* serum concentration, Maximum Likelihood Function estimate ^µ","[1]; gnotobiotic mice, serum, 4 test mice, censored at yL 80 pM",90.7384 pM
same,"EntF* serum concentration, average","[1]; gnotobiotic mice, serum, average of the 3 test mice above LoD",97.3333 pM
same,"Formation rate, HBSS",[2]; value X1,0.0321 %*min-1
same,"Formation rate, HBSS",[2]; value X2,0.0130 %*min-1
same,"Formation rate, HBSS",[2]; value X3,0.0600 %*min-1
same,"Formation rate, HBSS",[2]; value X4,0.0499 %*min-1
same,"Formation rate, HBSS",[2]; value X5,0.0573 %*min-1
same,"Formation rate, HBSS",[2]; value X6,0.0440 %*min-1
same,"Formation rate, HBSS",[2]; value X7,0.0469 %*min-1
same,"Rico, Average","[2]; HBSS, initial concentration EntF 31.82 µM, average over the time points 1-180",0.0433 %*min-1
same,EntF* Conc formed from EntF,[2]; [3],0.00 µM
same,"EntF* without metabolisation, Conc",[2]; [3],0.00 µM
same,"EntF* without metabolisation, Conc",[2]; [4],0.01 µM
same,EntF*/EntF,[2]; [4],0.0321%
same,EntF* Conc formed from EntF,[2]; [5],0.02 µM
same,"EntF* without metabolisation, Conc",[2]; [5],0.02 µM
same,EntF*/EntF,[2]; [5],0.0652%
same,EntF* Conc formed from EntF,[2]; [6],0.19 µM
same,"EntF* without metabolisation, Conc",[2]; [6],0.19 µM
same,EntF*/EntF,[2]; [6],0.60%
same,EntF* Conc formed from EntF,[2]; [7],0.48 µM
same,"EntF* without metabolisation, Conc",[2]; [7],0.48 µM
same,EntF*/EntF,[2]; [7],1.50%
same,EntF* Conc formed from EntF,[2]; [8],1.09 µM
same,"EntF* without metabolisation, Conc",[2]; [8],1.09 µM
same,EntF*/EntF,[2]; [8],3.44%
same,EntF* Conc formed from EntF,[2]; [9],1.68 µM
same,"EntF* without metabolisation, Conc",[2]; [9],1.68 µM
same,EntF*/EntF,[2]; [9],5.28%
same,EntF* Conc formed from EntF,[2]; [10],2.69 µM
same,"EntF* without metabolisation, Conc",[2]; [10],2.69 µM
same,EntF*/EntF,[2]; [10],8.45%
same,stability of EntF* in HBSS,"[2]; HBSS, remark in sheet HBSS",EntF* is stable in HBSS
